Data on six compounds can be found in the supplement of paper PMC12076712.

Holding throughout (assay): pIC50, kinobeads binding competition
In one test the target is T1, ACVR1 (UniProt Q04771).
T1 sequence (whole entry): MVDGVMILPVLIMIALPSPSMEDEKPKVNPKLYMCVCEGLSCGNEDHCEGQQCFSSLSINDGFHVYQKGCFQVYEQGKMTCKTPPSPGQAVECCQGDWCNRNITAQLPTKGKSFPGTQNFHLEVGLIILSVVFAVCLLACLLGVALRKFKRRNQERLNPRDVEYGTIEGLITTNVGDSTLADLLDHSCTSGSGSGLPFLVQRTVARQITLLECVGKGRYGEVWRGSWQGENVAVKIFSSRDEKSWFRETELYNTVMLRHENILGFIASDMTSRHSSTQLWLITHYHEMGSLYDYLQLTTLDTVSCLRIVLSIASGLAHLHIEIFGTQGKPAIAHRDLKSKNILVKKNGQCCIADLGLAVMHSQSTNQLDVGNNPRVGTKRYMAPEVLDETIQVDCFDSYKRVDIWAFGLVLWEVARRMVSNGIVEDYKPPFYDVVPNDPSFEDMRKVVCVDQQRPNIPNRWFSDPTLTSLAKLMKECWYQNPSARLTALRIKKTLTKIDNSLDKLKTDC
Put shortly:
(§1)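 Jurkat cells were exposed alive to nine compound concentrations (top 30 μM, 1:4 steps) or vehicle for 60 min at 37 °C and then lysed. In a second format, nine concentrations (top 30 μM, 1:5 steps) were incubated for 60 min at 4 °C with Jurkat lysate or with a 1:1:1:1 lysate mix of HEK293, K-562, HepG2 and placenta. Proteins captured on Kinobeads were digested and quantified by TMT10 LC-MS/MS. pIC50 values were derived from logistic dose-response fits (R drc package) of fold changes relative to vehicle, in biological duplicates.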

The target in a further test is UniProt Q15208. A digest of the protocol: as §1
Chain of UniProt Q15208 (Q15208 whole entry, looked up): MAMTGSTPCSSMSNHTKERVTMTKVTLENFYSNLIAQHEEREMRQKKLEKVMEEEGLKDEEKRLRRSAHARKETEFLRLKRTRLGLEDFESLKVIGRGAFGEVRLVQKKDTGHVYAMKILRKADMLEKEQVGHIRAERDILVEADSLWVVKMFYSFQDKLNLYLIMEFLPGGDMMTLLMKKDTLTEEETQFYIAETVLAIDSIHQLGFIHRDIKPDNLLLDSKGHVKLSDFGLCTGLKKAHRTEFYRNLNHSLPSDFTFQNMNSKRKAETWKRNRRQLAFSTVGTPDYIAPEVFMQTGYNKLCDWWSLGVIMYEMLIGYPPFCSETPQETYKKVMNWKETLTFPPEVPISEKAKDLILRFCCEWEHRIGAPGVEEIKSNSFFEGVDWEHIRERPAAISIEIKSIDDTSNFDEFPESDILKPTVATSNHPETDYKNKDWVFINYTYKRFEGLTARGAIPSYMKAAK
Another test deals with UniProt P28482. A digest of the protocol:
as §1

A further test has as its target FGFR3 (UniProt P22607). Conditions: cell material: Lysate mix. A digest of the protocol: as §1
For a further test, the target named is T2, CDKL5 (UniProt O76039).
T2 sequence (whole entry): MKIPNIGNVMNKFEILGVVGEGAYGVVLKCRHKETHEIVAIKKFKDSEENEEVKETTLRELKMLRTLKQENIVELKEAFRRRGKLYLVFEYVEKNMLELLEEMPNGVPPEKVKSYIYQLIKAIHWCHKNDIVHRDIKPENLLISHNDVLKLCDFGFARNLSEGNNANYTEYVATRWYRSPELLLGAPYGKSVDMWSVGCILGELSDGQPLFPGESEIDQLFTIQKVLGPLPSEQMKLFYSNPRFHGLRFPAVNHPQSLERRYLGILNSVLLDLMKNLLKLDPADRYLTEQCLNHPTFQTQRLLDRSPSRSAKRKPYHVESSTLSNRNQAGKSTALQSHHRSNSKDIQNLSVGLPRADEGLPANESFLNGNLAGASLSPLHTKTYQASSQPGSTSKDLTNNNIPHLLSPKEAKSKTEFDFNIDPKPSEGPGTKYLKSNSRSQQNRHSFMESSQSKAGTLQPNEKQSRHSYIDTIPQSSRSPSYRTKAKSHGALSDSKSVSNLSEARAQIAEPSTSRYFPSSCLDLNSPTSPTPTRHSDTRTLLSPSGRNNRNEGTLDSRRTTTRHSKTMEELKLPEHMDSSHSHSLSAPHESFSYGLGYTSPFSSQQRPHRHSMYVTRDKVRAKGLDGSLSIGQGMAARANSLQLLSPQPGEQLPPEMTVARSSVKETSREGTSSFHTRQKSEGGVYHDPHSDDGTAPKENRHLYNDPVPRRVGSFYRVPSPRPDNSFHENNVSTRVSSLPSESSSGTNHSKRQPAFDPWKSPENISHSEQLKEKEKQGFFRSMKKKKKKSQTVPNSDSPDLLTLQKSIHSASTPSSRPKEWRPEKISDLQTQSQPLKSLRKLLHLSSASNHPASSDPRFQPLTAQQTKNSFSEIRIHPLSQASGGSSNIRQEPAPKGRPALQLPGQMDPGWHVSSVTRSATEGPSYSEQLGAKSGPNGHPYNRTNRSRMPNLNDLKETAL
A digest of the protocol: as §1

The target in another test is TGFBR2 (UniProt P37173). Put shortly: as §1
A further test concerns the target UniProt P09619. Conditions: cell material: Lysate mix. Put shortly: as §1
For another test, the target named is SLK (UniProt Q9H2G2). Put shortly: as §1
Chain of SLK (Q9H2G2 whole entry, looked up): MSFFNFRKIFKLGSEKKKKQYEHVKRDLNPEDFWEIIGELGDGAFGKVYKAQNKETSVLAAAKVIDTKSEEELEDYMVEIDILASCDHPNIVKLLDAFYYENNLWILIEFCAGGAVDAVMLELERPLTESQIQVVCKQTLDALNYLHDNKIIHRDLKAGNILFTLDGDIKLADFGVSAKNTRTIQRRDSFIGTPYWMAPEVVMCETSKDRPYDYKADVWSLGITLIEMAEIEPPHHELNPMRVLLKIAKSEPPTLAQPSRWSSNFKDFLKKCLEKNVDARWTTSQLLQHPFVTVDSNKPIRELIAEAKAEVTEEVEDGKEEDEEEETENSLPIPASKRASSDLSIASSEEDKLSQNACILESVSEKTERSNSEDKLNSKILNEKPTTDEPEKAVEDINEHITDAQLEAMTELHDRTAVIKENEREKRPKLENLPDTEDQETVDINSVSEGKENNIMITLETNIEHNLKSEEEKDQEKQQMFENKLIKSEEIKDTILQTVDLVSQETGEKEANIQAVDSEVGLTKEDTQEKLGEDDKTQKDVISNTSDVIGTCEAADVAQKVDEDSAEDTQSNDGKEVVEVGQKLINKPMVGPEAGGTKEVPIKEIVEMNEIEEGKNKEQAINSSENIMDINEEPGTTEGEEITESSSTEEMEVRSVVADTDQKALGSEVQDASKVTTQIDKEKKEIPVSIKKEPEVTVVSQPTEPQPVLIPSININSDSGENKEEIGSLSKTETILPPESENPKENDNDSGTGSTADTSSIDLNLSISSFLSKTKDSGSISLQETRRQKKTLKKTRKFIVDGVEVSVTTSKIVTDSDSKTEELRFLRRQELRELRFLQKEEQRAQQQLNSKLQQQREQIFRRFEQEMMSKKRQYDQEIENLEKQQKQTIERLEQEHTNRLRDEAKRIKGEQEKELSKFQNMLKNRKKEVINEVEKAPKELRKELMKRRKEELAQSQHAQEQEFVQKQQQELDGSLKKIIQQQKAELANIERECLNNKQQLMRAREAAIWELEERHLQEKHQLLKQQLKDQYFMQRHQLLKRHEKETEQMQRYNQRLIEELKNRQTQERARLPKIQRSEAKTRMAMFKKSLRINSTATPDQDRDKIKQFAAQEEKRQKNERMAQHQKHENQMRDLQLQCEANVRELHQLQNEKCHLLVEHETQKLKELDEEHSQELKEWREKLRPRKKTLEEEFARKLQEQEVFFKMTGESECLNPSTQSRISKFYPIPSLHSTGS
The target of the next test is CSK (UniProt P41240). Put shortly: as §1
Chain of CSK (P41240 whole entry, looked up): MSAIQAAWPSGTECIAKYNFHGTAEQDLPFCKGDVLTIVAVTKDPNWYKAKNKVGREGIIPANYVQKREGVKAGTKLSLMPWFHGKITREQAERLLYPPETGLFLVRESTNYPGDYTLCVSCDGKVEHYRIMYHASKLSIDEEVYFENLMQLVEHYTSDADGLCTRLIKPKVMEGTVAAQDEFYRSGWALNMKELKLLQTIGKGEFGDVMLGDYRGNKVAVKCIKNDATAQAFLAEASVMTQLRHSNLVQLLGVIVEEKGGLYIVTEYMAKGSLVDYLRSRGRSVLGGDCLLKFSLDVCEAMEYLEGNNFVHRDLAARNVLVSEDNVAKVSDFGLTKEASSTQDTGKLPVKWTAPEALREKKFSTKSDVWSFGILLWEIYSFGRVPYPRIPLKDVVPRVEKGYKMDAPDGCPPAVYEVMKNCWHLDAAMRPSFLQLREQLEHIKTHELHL
In the next test the target is ROCK1 (UniProt Q13464). A digest of the protocol: as §1
The target in the next test is MAP3K4 (UniProt Q9Y6R4). Put shortly:
as §1

Chain of MAP3K4 (Q9Y6R4 whole entry): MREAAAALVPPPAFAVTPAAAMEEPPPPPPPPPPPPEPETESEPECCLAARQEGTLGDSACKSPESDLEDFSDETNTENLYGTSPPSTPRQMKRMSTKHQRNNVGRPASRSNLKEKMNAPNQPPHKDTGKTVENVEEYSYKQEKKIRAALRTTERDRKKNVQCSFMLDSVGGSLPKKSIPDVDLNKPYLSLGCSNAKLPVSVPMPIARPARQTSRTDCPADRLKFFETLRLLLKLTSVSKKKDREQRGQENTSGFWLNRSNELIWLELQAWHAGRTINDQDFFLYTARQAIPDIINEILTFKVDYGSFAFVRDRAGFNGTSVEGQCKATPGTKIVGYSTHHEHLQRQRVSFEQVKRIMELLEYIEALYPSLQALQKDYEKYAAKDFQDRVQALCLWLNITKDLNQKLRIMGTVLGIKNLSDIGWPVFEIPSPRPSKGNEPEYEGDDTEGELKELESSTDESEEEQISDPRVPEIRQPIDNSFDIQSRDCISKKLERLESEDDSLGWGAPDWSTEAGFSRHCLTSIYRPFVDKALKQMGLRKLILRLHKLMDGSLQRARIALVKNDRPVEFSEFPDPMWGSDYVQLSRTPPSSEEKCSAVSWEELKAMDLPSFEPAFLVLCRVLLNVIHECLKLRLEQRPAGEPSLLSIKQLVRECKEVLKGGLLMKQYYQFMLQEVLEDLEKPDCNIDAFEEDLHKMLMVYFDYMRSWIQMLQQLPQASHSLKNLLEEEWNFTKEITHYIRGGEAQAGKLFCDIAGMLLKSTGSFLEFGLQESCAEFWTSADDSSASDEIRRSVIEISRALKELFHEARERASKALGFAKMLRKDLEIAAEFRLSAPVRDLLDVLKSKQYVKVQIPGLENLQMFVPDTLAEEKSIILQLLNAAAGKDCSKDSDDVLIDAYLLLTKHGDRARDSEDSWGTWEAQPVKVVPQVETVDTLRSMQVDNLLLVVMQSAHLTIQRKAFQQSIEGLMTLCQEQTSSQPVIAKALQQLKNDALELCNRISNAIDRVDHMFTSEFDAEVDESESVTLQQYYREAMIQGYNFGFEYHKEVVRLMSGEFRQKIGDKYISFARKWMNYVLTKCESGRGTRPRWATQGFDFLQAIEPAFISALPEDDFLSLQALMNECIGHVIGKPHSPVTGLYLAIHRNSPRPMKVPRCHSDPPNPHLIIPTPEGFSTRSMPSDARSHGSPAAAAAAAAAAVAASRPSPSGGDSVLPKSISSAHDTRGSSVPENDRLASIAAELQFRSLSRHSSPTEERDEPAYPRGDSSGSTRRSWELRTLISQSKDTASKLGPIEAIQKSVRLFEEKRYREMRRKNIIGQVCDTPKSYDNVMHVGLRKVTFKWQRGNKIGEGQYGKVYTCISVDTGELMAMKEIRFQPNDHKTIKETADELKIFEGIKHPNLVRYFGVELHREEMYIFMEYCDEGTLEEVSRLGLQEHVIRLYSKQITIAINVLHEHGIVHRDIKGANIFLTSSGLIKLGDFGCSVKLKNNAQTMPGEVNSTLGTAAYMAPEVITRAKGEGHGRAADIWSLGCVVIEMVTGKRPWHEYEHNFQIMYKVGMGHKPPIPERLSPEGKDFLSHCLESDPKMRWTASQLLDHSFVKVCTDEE
Chain of FGFR3 (P22607 whole entry, looked up): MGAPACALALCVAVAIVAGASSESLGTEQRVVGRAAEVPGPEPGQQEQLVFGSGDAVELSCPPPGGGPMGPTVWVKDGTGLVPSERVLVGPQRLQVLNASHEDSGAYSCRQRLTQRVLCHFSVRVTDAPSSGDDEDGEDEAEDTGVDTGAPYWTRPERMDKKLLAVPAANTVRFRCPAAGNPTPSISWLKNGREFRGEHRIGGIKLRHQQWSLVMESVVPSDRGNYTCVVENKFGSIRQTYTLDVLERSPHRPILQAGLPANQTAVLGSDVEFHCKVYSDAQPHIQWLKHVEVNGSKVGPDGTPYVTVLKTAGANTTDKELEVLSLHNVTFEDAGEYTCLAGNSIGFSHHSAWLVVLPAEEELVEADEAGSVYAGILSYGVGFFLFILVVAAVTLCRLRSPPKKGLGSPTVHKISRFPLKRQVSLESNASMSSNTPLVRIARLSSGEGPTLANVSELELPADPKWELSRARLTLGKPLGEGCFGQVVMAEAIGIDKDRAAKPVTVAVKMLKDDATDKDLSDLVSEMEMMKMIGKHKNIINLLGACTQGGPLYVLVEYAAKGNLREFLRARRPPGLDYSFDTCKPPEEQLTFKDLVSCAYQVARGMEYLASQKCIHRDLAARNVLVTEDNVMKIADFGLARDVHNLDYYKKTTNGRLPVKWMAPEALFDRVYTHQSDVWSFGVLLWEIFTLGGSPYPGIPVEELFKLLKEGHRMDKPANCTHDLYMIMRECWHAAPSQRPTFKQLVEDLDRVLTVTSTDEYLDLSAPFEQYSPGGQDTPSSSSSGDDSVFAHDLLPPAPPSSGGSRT
Chain of UniProt P28482 (P28482 whole entry): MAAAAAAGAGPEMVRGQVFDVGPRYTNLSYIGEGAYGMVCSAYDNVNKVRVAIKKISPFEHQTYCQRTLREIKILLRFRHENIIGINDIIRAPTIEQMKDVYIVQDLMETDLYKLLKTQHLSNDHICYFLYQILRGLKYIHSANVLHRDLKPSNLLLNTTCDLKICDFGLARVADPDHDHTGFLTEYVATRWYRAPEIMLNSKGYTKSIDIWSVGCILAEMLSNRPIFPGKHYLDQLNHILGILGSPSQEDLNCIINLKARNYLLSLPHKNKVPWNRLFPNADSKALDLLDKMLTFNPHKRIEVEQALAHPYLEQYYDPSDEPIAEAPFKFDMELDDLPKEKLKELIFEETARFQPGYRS

As to `Cc1cc(Nc2cc(C(=O)NCCNC(=O)OC3CC/C=C/CCC3)nc(N3CCN(Cc4ccc(S(=O)(=O)F)cc4)CC3)n2)n[nH]1` (stereo not given), the pIC50 at ACVR1 (cell material: Lysate mix), on UniProt Q15208 (cell material: Lysate mix), on UniProt P28482 (cell material: Lysate mix), at FGFR3, at CDKL5 (cell material: Lysate mix) and at TGFBR2 (cell material: Lysate mix) was less than 4.52 each time. The pIC50 at UniProt P09619, at SLK (cell material: Lysate mix), at CSK (cell material: Lysate mix), on ROCK1 (cell material: Lysate mix) and at MAP3K4 (cell material: Lysate mix) was less than 4.52 in each case.
For the compound `C#CCNC(=O)c1cc(Nc2cc(C3CC3)[nH]n2)nc(N2CCN(Cc3ccc(S(=O)(=O)F)cc3)CC2)n1`, the negative-log IC50 (pIC50) on ACVR1 (cell material: Jurkat cells) was 5.78; at ACVR1 (cell material: Jurkat lysate) it was 4.66; at ACVR1 (cell material: Lysate mix), 5.14; at UniProt Q15208 (cell material: Jurkat cells), 6.44; on UniProt Q15208 (cell material: Jurkat lysate), 5.44; at UniProt Q15208 (cell material: Lysate mix) it was 6.2. Besides, the negative logarithm of the IC50 (pIC50) at UniProt P28482 (cell material: Jurkat cells) was 5.48; at UniProt P28482 (cell material: Jurkat lysate), less than 4.52; at UniProt P28482 (cell material: Lysate mix) it was less than 4.52; on FGFR3, less than 4.52; at CDKL5 (cell material: Jurkat cells), 6.89; on CDKL5 (cell material: Jurkat lysate), 5.95. Further, the pIC50 was 6.41 at CDKL5 (cell material: Lysate mix); 5.5 at TGFBR2 (cell material: Jurkat cells); less than 4.52 on TGFBR2 (cell material: Jurkat lysate); less than 4.52 on TGFBR2 (cell material: Lysate mix); less than 4.52 on UniProt P09619; 5.46 on SLK (cell material: Jurkat cells). Also, the negative-log IC50 (pIC50) at SLK (cell material: Jurkat lysate) was less than 4.52; at SLK (cell material: Lysate mix), less than 4.52; at CSK (cell material: Jurkat cells) it was 5.55; at CSK (cell material: Jurkat lysate), less than 4.52; at CSK (cell material: Lysate mix), less than 4.52; at ROCK1 (cell material: Jurkat lysate), less than 4.52. The pIC50 was less than 4.52 on ROCK1 (cell material: Lysate mix), 6.09 on MAP3K4 (cell material: Jurkat cells), 4.81 at MAP3K4 (cell material: Jurkat lysate) and 5.74 on MAP3K4 (cell material: Lysate mix).
On to `CCNC(=O)c1cc(Nc2cc(C3CC3)[nH]n2)nc(N2CCN(Cc3ccc(S(=O)(=O)F)cc3)CC2)n1`, for which the pIC50 at ACVR1 (cell material: Lysate mix) was 4.74; at UniProt Q15208 (cell material: Lysate mix), 5.83; on UniProt P28482 (cell material: Lysate mix) it was less than 4.52; on FGFR3, 5.04; at CDKL5 (cell material: Lysate mix), 6.16; at TGFBR2 (cell material: Lysate mix), less than 4.52. Besides, the negative logarithm of the IC50 (pIC50) was less than 4.52 at UniProt P09619; less than 4.52 on SLK (cell material: Lysate mix); less than 4.52 on CSK (cell material: Lysate mix); less than 4.52 on ROCK1 (cell material: Lysate mix); 5.61 on MAP3K4 (cell material: Lysate mix).
With `C#CCNC(=O)c1cc(Nc2cc(C)[nH]n2)nc(N2CCN(Cc3ccc(S(=O)(=O)F)cc3)CC2)n1`, the pIC50 was less than 4.52 at ACVR1 (cell material: Lysate mix); 5 at UniProt Q15208 (cell material: Lysate mix); less than 4.52 on UniProt P28482 (cell material: Lysate mix); less than 4.52 at FGFR3; 5.23 at CDKL5 (cell material: Lysate mix); less than 4.52 at TGFBR2 (cell material: Lysate mix). In addition, the negative logarithm of the IC50 (pIC50) is less than 4.52 on UniProt P09619; less than 4.52 at SLK (cell material: Lysate mix); less than 4.52 on CSK (cell material: Lysate mix); less than 4.52 at ROCK1 (cell material: Lysate mix); 4.88 at MAP3K4 (cell material: Lysate mix).
As for `O=C(NCCNC(=O)c1cc(Nc2cc(C3CC3)[nH]n2)nc(N2CCN(Cc3ccc(S(=O)(=O)F)cc3)CC2)n1)OC1CC/C=C/CCC1` (stereo not given), the pIC50 is 4.68 at ACVR1 (cell material: Jurkat cells); less than 4.52 at ACVR1 (cell material: Jurkat lysate); less than 4.52 on ACVR1 (cell material: Lysate mix); 6.33 on UniProt Q15208 (cell material: Jurkat cells); 4.8 at UniProt Q15208 (cell material: Jurkat lysate); 5.11 at UniProt Q15208 (cell material: Lysate mix). The negative logarithm of the IC50 (pIC50) at UniProt P28482 (cell material: Jurkat cells) is less than 4.52; on UniProt P28482 (cell material: Jurkat lysate), less than 4.52; at UniProt P28482 (cell material: Lysate mix), less than 4.52; on FGFR3, less than 4.52; at CDKL5 (cell material: Jurkat lysate), 4.89; at CDKL5 (cell material: Lysate mix) it was 5.12. For the same compound, the pIC50 at TGFBR2 (cell material: Jurkat cells), at TGFBR2 (cell material: Jurkat lysate), on TGFBR2 (cell material: Lysate mix), on UniProt P09619, at SLK (cell material: Jurkat cells) and on SLK (cell material: Jurkat lysate) was less than 4.52 each time. Also, the pIC50 at SLK (cell material: Lysate mix), at CSK (cell material: Jurkat cells), at CSK (cell material: Jurkat lysate), at CSK (cell material: Lysate mix), at ROCK1 (cell material: Jurkat cells) and on ROCK1 (cell material: Jurkat lysate) was less than 4.52 in each case. Further, the pIC50 on ROCK1 (cell material: Lysate mix) is less than 4.52; on MAP3K4 (cell material: Jurkat cells), 5.96; at MAP3K4 (cell material: Jurkat lysate), less than 4.52; on MAP3K4 (cell material: Lysate mix) it was less than 4.52.
For the compound `CCNC(=O)c1cc(Nc2cc(C)[nH]n2)nc(N2CCN(Cc3ccc(S(=O)(=O)F)cc3)CC2)n1`, the pIC50 on ACVR1 (cell material: Lysate mix) was less than 4.52; on UniProt Q15208 (cell material: Lysate mix), 4.8; on UniProt P28482 (cell material: Lysate mix), less than 4.52; on FGFR3, less than 4.52; on CDKL5 (cell material: Lysate mix) it was 5.11; at TGFBR2 (cell material: Lysate mix), less than 4.52. Also, the negative logarithm of the IC50 (pIC50) is less than 4.52 at UniProt P09619; less than 4.52 at SLK (cell material: Lysate mix); less than 4.52 on CSK (cell material: Lysate mix); less than 4.52 at ROCK1 (cell material: Lysate mix); 4.8 on MAP3K4 (cell material: Lysate mix).

For orientation: pIC50 means the IC50 on a negative log10 scale, so that one unit is a factor of ten. The low end stands for a large IC50, the high end for a small IC50.
